Results taken from paper PMC7070382, “Cannabidiol Protects Dopaminergic Neurons in Mesencephalic Cultures against the Complex I Inhibitor Rotenone Via Modulation of Heme Oxygenase Activity and Bilirubin” (Antioxidants, 2020).

Legend:
heme oxygenase (HO) [1] = system: T1, heme oxygenase (HO); assay: in vitro HO activity (hemin to bilirubin, spectrophotometric) in cell homogenate; format: biochemical
T1 construct: gene Hmox1; endogenous enzyme in J774A.1 cell homogenate; isoform not specified

heme oxygenase (HO) [2] = system: T1, heme oxygenase (HO); assay: in vitro HO activity (hemin to bilirubin, spectrophotometric) in cell homogenate; Lineweaver-Burk kinetics; format: biochemical

Row | SMILES | IC50 (heme oxygenase (HO) [1]) [µM] | IC50 (heme oxygenase (HO) [2]) [µM]
1 | CCCCCc1cc(O)c2c(c1)OC(C)(C)[C@@H]1CCC(C)=C[C@@H]21 [THC, tetrahydrocannabinol] | 56 | –
2 | C=C(C)[C@@H]1CCC(C)=C[C@H]1c1c(O)cc(CCCCC)cc1O [CBD, cannabidiol] | – | 30
